# Target: T1, 17-beta-hydroxysteroid dehydrogenase type 1 (Homo sapiens, UniProt P14061)
# T1 sequence (P14061 whole entry): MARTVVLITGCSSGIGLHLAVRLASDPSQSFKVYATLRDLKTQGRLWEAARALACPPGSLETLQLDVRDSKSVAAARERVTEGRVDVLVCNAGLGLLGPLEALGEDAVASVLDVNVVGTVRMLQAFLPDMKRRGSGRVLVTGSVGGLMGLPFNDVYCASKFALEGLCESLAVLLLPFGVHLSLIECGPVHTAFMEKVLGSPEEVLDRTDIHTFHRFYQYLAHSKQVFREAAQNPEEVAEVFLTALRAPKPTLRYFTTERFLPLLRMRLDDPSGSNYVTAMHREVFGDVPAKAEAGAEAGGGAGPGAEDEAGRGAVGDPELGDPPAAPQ
# Assay: (§1) Inhibition of 17-beta HSD1 in T47D cells
# Type: functional, cell-based
row,Compound,IC50
1,CC(NC(=O)C1C[C@H]2[C@@H]3CCc4cc(O)ccc4[C@H]3CC[C@]2(C)[C@H]1O)c1ccccc1 (stereo not given in full),810 nM
2,CNC(=O)CC1C[C@H]2[C@@H]3CCc4cc(O)ccc4[C@H]3CC[C@]2(C)C1=O (stereo not given in full),1500 nM
3,CCOC(=O)CC1C[C@H]2[C@@H]3CCc4cc(O)ccc4[C@H]3CC[C@]2(C)C1=O (stereo not given in full),300 nM
4,C[C@]12CC[C@@H]3c4ccc(O)cc4CC[C@H]3[C@@H]1C/C(=C\c1ccncc1)[C@@H]2O,4100 nM
5,C[C@]12CC[C@@H]3c4ccc(O)cc4CC[C@H]3[C@@H]1CC(CC(=O)NCC1CCCO1)C2=O (stereo not given in full),380 nM
6,CCOC[C@H]1C[C@H]2[C@@H]3CCc4cc(O)ccc4[C@H]3CC[C@]2(C)C1=O,320 nM
7,C[C@]12CC[C@@H]3c4ccc(O)cc4C(=O)C[C@H]3[C@@H]1CCC2=O,340 nM
8,C[C@]12CC[C@@H]3c4ccc(O)cc4CC[C@H]3[C@@H]1CC(C(=O)NCc1cccnc1)[C@@H]2O (stereo not given in full),510 nM
9,C[C@]12CC[C@@H]3c4ccc(O)cc4/C(=N\O)C[C@H]3[C@@H]1CC/C2=N\O,1900 nM

# Target: T2, 17-beta-hydroxysteroid dehydrogenase type 1 (Homo sapiens) (UniProt P14061)
# T2 sequence (whole entry): T1 sequence (P14061 whole entry)
# Assay: as §1
# Type: functional, cell-based
row,Compound,IC50
1,C[C@]12CCC3c4ccc(O)cc4C(=O)CC3C1CC(C=O)=C2O (stereo not given in full),700 nM

# Reference: ChEMBL document CHEMBL1149452 (J Med Chem, 2006)
